Experimental findings from US10183919B2 (priority 2014, dated 2019) are described below.

This test has as its target T1, Human MOR (Homo sapiens, UniProt P35372).
T1 construct: expressed in transfected cells; host or cells: HEK-293T
Description: cell-based. The text has this: Transfection. Human or mouse MOR cDNA was transfected alongside GαoB with RLuc8 inserted at position 91 (GαoB-RLuc8), Gβ1 (β1), and Gγ2 fused to the full-length mVenus at its N terminus (mVenus-γ2) into HEK-293T cells (5×10^6 cells/plate) in 10-cm dishes using PEI (Polysciences Inc.; Warrington, Pa.) in a 1:1 ratio diluted in Opti-MEM (Life Technologies Corp.; Grand Island, N.Y.) to assay for G protein activation as described previously (Rives, M.-L. et al. J. Biol. Chem. 2012, 287, 27050-4; Negri, A.; Rives, M.-L.; Caspers, M. J. et al. J. Chem. Inf. Model. 2013, 53, 521-526). Cells were maintained in the Dulbecco's Modified Eagle Medium (high glucose #11965; Life Technologies) supplemented with 10% FBS (Premium Select, Atlanta Biologicals; Atlanta, Ga.) and 100 U/mL penicillin and 100 μg/mL streptomycin (#15140, Life Technologies). After 24 hours the media was changed, and the experiment was performed 24 hours later (48 hours after transfection).
BRET. Transfected cells were dissociated and resuspended in phosphate-buffered saline (PBS). Approximately 200,000 cells/well were added to a black-framed, white well 96-well plate (#60050; Perkin Elmer; Waltham, Mass.). The microplate was centrifuged and the cells were resuspended in PBS. Then 5 μM of the luciferase substrate coelenterazine H was added to each well for 5 minutes. Following coelenterazine H addition, ligands were added and the BRET signal was measured at 5 minutes on a PHERAstar FS plate reader. Quantification of the BRET signal required calculating the ratio of the light emitted by the energy acceptor, mVenus (510-540 nm), over the light emitted by the energy donor, RLuc8 (485 nm). […] Dose response curves were fit using three-parameter logistics equation in GraphPad Prism 6.

The mark [1] stands for this setting: BRET G protein activation, HEK-293T, mean ± SEM of independent trials, read-out: EC50 Human MOR.

Where two headings read alike, the source gives them in different places.

T1 sequence (P35372 whole entry): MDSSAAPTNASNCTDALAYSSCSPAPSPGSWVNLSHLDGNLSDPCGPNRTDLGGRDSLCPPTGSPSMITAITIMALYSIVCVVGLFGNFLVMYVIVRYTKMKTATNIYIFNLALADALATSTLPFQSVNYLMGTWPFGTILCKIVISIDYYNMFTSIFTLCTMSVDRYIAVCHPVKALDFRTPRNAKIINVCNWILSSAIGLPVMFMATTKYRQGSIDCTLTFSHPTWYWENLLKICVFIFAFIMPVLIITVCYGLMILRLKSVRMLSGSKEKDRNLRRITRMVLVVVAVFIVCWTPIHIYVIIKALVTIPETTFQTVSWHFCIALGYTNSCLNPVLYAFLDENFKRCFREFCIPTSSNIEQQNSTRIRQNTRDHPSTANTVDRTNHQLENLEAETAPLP

Broadly, the EC50 is the midpoint of the concentration-response curve. As to “7-((3-Iodo-6-methyl-5,5-dioxido-6,11-dihydrodibenzo [c,f][1,2]thiazepin-11-yl)amino)heptanoic acid hydrochloride salt [compound 84]”, the 50% effective concentration (EC50) under setting [1] amounted to 0.04 µM.

For the compound `COCCCNC1c2ccccc2N(C)S(=O)(=O)c2cc([S+](C)[O-])ccc21` (mixture of isomers) [compound 55, 11-((3-Methoxypropyl)amino)-6-methyl-3-(methylsulfinyl)-6,11-dihydrodibenzo[c,f][1,2]thiazepine 5,5-dioxide], the concentration giving a half-maximal response (EC50) is < 20 µM.

Regarding `COC(C)CCNC1c2ccccc2N(C)S(=O)(=O)c2cc(Cl)ccc21` (mixture of isomers) [compound 67, 3-Chloro-11-((3-methoxybutyl)amino)-6-methyl-6,11-dihydrodibenzo [c,f][1,2]thiazepine 5,5-dioxide], the concentration giving a half-maximal response (EC50) was < 10 µM.

Turning to `COCC(C)CNC1c2ccccc2N(C)S(=O)(=O)c2cc(Cl)ccc21` (mixture of isomers) [compound 68, 3-Chloro-11-((3-methoxy-2-methylpropyl)amino)-6-methyl-6,11-dihydrodibenzo[c,f][1,2]thiazepine 5,5-dioxide], the EC50 was < 10 µM.

As for `CCOC(=O)CCCCCCNC1c2ccccc2S(=O)(=O)N(C)c2ccsc21` (stereo not shown) [compound 6, Ethyl 7-((4-methyl-5,5-dioxido-4,10-dihydrobenzo[f]thieno[3,2-c][1,2]thiazepin-10-yl)amino) heptanoate], the EC50 is < 10 µM.

With `COCCCNC1c2ccccc2S(=O)(=O)N(C)c2ccsc21` (stereo not shown) [compound 7, 10-((3-Methoxypropyl)amino)-4-methyl-4,10-dihydrobenzo[f]thieno[3,2-c][1,2]thiazepine 5,5-dioxide], the EC50 is < 10 µM.

On to `COCCCNC1c2ccccc2N(C)S(=O)(=O)c2ccccc21` (stereo not shown) [compound 10, 11-((3-Methoxypropyl)amino)-6-methyl-6,11-dihydrodibenzo[c,f][1,2]thiazepine 5,5-dioxide], for which the EC50 is < 10 µM.

With `COCCCNC1c2cc(Br)ccc2N(C)S(=O)(=O)c2cc(Cl)ccc21` (stereo not shown) [compound 11], the concentration giving a half-maximal response (EC50) was < 10 µM.

As for `CC(=O)OCCCCCCNC1c2ccccc2N(C)S(=O)(=O)c2cc(Cl)ccc21` (stereo not shown) [compound 13, 6-((3-Chloro-6-methyl-5,5-dioxido-6,11-dihydrodibenzo[c,f][1,2]thiazepin-11-yl)amino)hexyl acetate], the EC50 is < 10 µM.

Regarding `CCOC(=O)CCCCCCNC1c2ccccc2N(C)S(=O)(=O)c2cc(C)ccc21` (stereo not shown) [compound 14, Ethyl 7-((3,6-dimethyl-5,5-dioxido-6,11-dihydrodibenzo[c,f][1,2]thiazepin-11-yl)amino) heptanoate], the half-maximal effective concentration (EC50) is < 10 µM.

On to `COCCCNC1c2ccccc2N(C)S(=O)(=O)c2cc(C)ccc21` (stereo not shown) [compound 15, 11-((3-Methoxypropyl)amino)-3,6-dimethyl-6,11-dihydrodibenzo[c,f][1,2]thiazepine 5,5-dioxide], for which the EC50 was < 10 µM.

As to `Cc1ccc2c(c1)S(=O)(=O)N(C)c1ccccc1C2NCCCCCCC(=O)O` (stereo not shown) [compound 16], the EC50 was < 10 µM.

Take `CCOC(CCCNC1c2ccccc2N(C)S(=O)(=O)c2cc(Cl)ccc21)OCC` (stereo not shown) [compound 24, 3-Chloro-11-((4,4-diethoxybutyl)amino)-6-methyl-6,11-dihydrodibenzo[c,f][1,2]thiazepine 5,5-dioxide]: the concentration for a half-maximal effect (EC50) was < 10 µM.

Take `CN1c2ccccc2C(NCCOCCO)c2ccc(Cl)cc2S1(=O)=O` (stereo not shown) [compound 25, 3-Chloro-11-((2-(2-hydroxyethoxy)ethyl)amino)-6-methyl-6,11-dihydrodibenzo[c,f][1,2]thiazepine 5,5-dioxide]: it took 8.59 ± 0.5 µM to reach a half-maximal effect (EC50).

Turning to `CCCCCCCNC1c2ccccc2N(C)S(=O)(=O)c2cc(Cl)ccc21` (stereo not shown) [compound 26, 3-Chloro-11-(heptylamino)-6-methyl-6,11-dihydrodibenzo [c,f][1,2]thiazepine 5,5-dioxide], the EC50 was < 10 µM.

For `COCCCNC1c2ccccc2N(C)S(=O)(=O)c2cc(OC)ccc21` (stereo not shown) [compound 27, 3-Methoxy-11-((3-methoxypropyl)amino)-6-methyl-6,11-dihydrodibenzo [c,f][1,2]thiazepine 5,5-dioxide], the EC50 was < 10 µM.

For `CN1c2ccccc2C(NCCCC(F)(F)F)c2ccc(Cl)cc2S1(=O)=O` (stereo not shown) [compound 28, 3-Chloro-6-methyl-11-((4,4,4-trifluorobutyl)amino)-6,11-dihydrodibenzo [c,f][1,2]thiazepine 5,5-dioxide], the EC50 is < 10 µM.

Regarding `COCCCNC1c2ccccc2N(C)S(=O)(=O)c2cc(Oc3ccccc3)ccc21` (stereo not shown) [compound 29, 11-((3-Methoxypropyl)amino)-6-methyl-3-phenoxy-6,11-dihydrodibenzo [c,f][1,2]thiazepine 5,5-dioxide], the EC50 is < 10 µM.

In the case of `CN1c2ccccc2C(NCCCCCO)c2ccc(Cl)cc2S1(=O)=O` (stereo not shown) [compound 30, 3-Chloro-11-((5-hydroxypentyl)amino)-6-methyl-6,11-dihydrodibenzo [c,f][1,2]thiazepine 5,5-dioxide], the concentration giving a half-maximal response (EC50) was > 50 µM.

`CN1c2ccccc2C(NCCCC2OCCCO2)c2ccc(Cl)cc2S1(=O)=O` (stereo not shown) [compound 31, 11-((3-(1,3-Dioxan-2-yl)propyl)amino)-3-chloro-6-methyl-6,11-dihydrodibenzo[c,f][1,2]thiazepine 5,5-dioxide]: the EC50 is < 10 µM.

In the case of `COCCCCCNC1c2ccccc2N(C)S(=O)(=O)c2cc(Cl)ccc21` (stereo not shown) [compound 32, 3-Chloro-11-((5-methoxypentyl)amino)-6-methyl-6,11-dihydrodibenzo [c,f][1,2]thiazepine 5,5-dioxide], a half-maximal effect (EC50) was put at 0.563 ± 0.247 µM.

On to `CSCCCNC1c2ccccc2N(C)S(=O)(=O)c2cc(Cl)ccc21` (stereo not shown) [compound 33, 3-Chloro-6-methyl-11-((3-(methylthio)propyl)amino)-6,11-dihydrodibenzo[c,f][1,2]thiazepine 5,5-dioxide], for which the 50% effective concentration (EC50) was < 10 µM.

In turn, `CCOC(=O)CCCCCCNC1c2ccccc2N(C)S(=O)(=O)c2cc(Cl)ccc21` (stereo not shown) [compound 34, Ethyl 7-((3-chloro-6-methyl-5,5-dioxido-6,11-dihydrodibenzo[c,f][1,2]thiazepin-11-yl)amino)heptanoate] yielded an EC50 of 0.657 ± 0.366 µM.

`CC(C)OCCCNC1c2ccccc2N(C)S(=O)(=O)c2cc(Cl)ccc21` (stereo not shown) [compound 35, 3-Chloro-11-((3-isopropoxypropyl)amino)-6-methyl-6,11-dihydrodibenzo [c,f][1,2]azepine 5,5-dioxide]: the EC50 is < 10 µM.

Turning to `COCCOCCNC1c2ccccc2N(C)S(=O)(=O)c2cc(Cl)ccc21` (stereo not shown) [compound 36, 3-Chloro-11-((2-(2-methoxyethoxy)ethyl)amino)-6-methyl-6,11-dihydrodibenzo[c,f][1,2]thiazepine 5,5-dioxide], the 50% effective concentration (EC50) was < 10 µM.

`CCOCCCNC1c2ccccc2N(C)S(=O)(=O)c2cc(Cl)ccc21` (stereo not shown) [compound 37, 3-Chloro-11-((3-ethoxypropyl)amino)-6-methyl-6,11-dihydrodibenzo [c,f][1,2]thiazepine 5,5-dioxide]: the EC50 under setting [1] was 0.893 ± 0.147 µM.

On to `COCCCCNC1c2ccccc2N(C)S(=O)(=O)c2cc(Cl)ccc21` (stereo not shown) [compound 39, 3-Chloro-11-((4-methoxybutyl)amino)-6-methyl-6,11-dihydrodibenzo [c,f][1,2]thiazepine 5,5-dioxide], for which the EC50 is < 10 µM.

For `COCCCNC1c2ccccc2N(C)S(=O)(=O)c2cc(F)ccc21` (stereo not shown) [compound 40, 3-Fluoro-11-((3-methoxypropyl)amino)-6-methyl-6,11-dihydrodibenzo[c,f] [1,2]thiazepine 5,5-dioxide], it took 5.53 ± 0.25 µM to reach a half-maximal effect (EC50).

As for `CCOC(=O)CCCCCCNC1c2ccccc2N(C)S(=O)(=O)c2cc(F)ccc21` (stereo not shown) [compound 41, Ethyl 7-((3-fluoro-6-methyl-5,5-dioxido-6,11-dihydrodibenzo[c,f][1,2]thiazepin-11-yl)amino)heptanoate], the EC50 was 2.04 ± 0.334 µM.

In the case of `COCCNC1c2ccccc2N(C)S(=O)(=O)c2cc(Cl)ccc21` (stereo not shown) [compound 42, 3-Chloro-11-((2-methoxyethyl)amino)-6-methyl-6,11-dihydrodibenzo [c,f][1,2]thiazepine 5,5-dioxide], the 50% effective concentration (EC50) is < 10 µM.

Regarding `COCCCNC1c2ccccc2S(=O)(=O)N(C)c2c(Br)csc21` (stereo not shown) [compound 43, 3-Bromo-10-((3-methoxypropyl)amino)-4-methyl-4,10-dihydrobenzo[f]thieno[3,2-c][1,2]thiazepine 5,5-dioxide], the EC50 is < 20 µM.

For `CN1c2ccccc2C(NCC2CCOC2)c2ccc(Cl)cc2S1(=O)=O` (stereo not shown) [compound 46], the EC50 is < 10 µM.

For the compound `CN1CCCC1CCNC1c2ccccc2N(C)S(=O)(=O)c2cc(Cl)ccc21` (stereo not shown) [compound 47], the EC50 is < 20 µM.

In the case of `COCCCNC1c2ccccc2N(C)S(=O)(=O)c2cc(I)ccc21` (stereo not shown) [compound 48, 3-Iodo-11-((3-methoxypropyl)amino)-6-methyl-6,11-dihydrodibenzo [c,f][1,2]thiazepine 5,5-dioxide], a half-maximal effect (EC50) was put at 0.0152 ± 0.0069 µM.
